Legend:
PFI-019 = molecular target: T1, PFI-019 (Homo sapiens, UniProt Q96P68); experiment: FLIPR cell-based assay for agonist activation of PFI-019 (calcium fluorescence, Fluo3); details: PFI-019-transfected HEK 293 cells expressing mouse Gα15, fluorescence intensity versus time
T1 construct: amplify the PFI-019 coding region from human genomic DNA; N-terminal polyhistidine/Xpress leader of vector pcDNA4/HisMax-TOPO (inferred from the vector name); expressed in transfected cells; host or cells: HEK293 cells expressing the mouse Galpha15 gene, transiently transfected
Description: Fluorescence Imaging Plate Reader (FLIPR®) technology was employed as a means to detect activation of PFI-019 by agonists in a cell-based assay.
(§1) 5×10^6 Human Embryonic Kidney (HEK) 293 cells expressing the mouse Gα15 gene (from here on called '293 cells'), were transiently transfected with 7.5 μg of PFI-019 (contained within the pcDNA4HIS-max-TOPO (Invitrogen) plasmid) vector, or vector alone, using Lipofectamine Plus® reagent (Gibco BRL) as per the manufacturer's protocol. The plasmid pcDNA4HIS-max-TOPO was used as it contains elements that up-regulate the level of gene transcription over standard pcDNA3.1 vectors. 24 hrs post-transfection, the cells were detached from the flask using Trypsin/EDTA solution (LTI) and seeded into a black sided, Poly-D-lysine-treated, 96-well plate (Becton Dickinson) at 5×10^4 cells/well density. The plates were left overnight to allow the cells to adhere to the bottom of the wells. […] The FLIPR® processing involved reading the fluorescence for all samples for 2 minutes; during this time the fluorescence baseline was determined for the first 10 seconds. The desired amount of compound was then automatically transferred to the wells, and the fluorescence was continuously monitored for the remainder of the time. […]

[1] = test system: Vector-only transfected 293 cells; experiment: FLIPR cell-based assay, vector-only (mock) transfected control cells; set-up: species or system human; details: vector-only transfected HEK 293 cells expressing mouse Gα15
Description: as §1

Row | SMILES | stimulation of PFI-019 (fluorescence response) (PFI-019) | response of vector-only transfected 293 cells (fluorescence) [1]
1 | Nc1nc(Cl)nc2c1ncn2[C@@H]1O[C@H](COP(=O)([O-])OP(=O)([O-])OP(=O)([O-])[O-])[C@@H](O)[C@H]1O.[Na+].[Na+].[Na+].[Na+] [2-chloro-ATP, 2-chloroadenosine triphosphate tetrasodium] | stimulation of PFI-019 | no measurable response
2 | O=c1ccn([C@@H]2O[C@H](COP(=O)(O)OP(=O)(O)OP(=O)(O)O)[C@@H](O)[C@H]2O)c(=O)[nH]1 [UTP, Uridine triphosphate] | stimulation of PFI-019 | no measurable response

Reference: patent US20040137574A1, “Novel polypeptide” (Pfizer Inc, priority 2000, published 2004)
